From US20070142321A1, “METHOD FOR PREVENTING GROWTH OF BACTERIA ON CONTACT LENSES WITH EYE DROPS” (priority 2005, published 2007)

Tests used:
[1] = test system: microbes; test: Disinfection of a contact lens removed from the eye and treated by a disinfecting/cleaning regimen; format: cell-based; conditions: Alexidine at 4.5 ppm; lens removed from the eye and treated with solution
Protocol: (§1) For the purposes of this patent application a disinfecting amount is an amount of an antimicrobial agent that passes the Stand Alone Disinfecting Efficacy Test by the Food and Drug Administration (510k) of the United States of America in a minimum of three out of four test samples in a test solution that is diluted with 0.9 wt. % saline solution in a 1:1 ratio of test solution to saline solution.
(§2) The FDA (510 (k)) Guidance Document for contact lens products defines procedures that measure the extend of viability loss of representative microorganisms at established time intervals to determine the extend of viability loss. FDA (510 (k)) Guidance Documents recommended test organisms for both disinfecting stand-alone and preservative efficacy testing are composed of three bacteria (Pseudomonas aeruginosa ATCC 9027, Stapylococcus aureus ATCC 6538, and Serratia marcescens ATCC 13880) and two fungi (Candida albicans ATCC 10231, and Fusarium solani ATCC 36031). The performance requirement biocidal stand alone testing calls for 3 log reduction for bacterial cells and 1 log reduction for each fungi. At day 28, after the rechallenge on day 14, the performance requirement for preservative efficacy testing calls for reduction of 3.0 logs per bacteria and ±0.5 for fungi.
(§3) With Alexidine, it has been discovered that approximately 1 ppm is required to disinfect each of the solutions above. […]

[2] = test system: microbes; test: Amount of Alexidine required to disinfect the solutions; format: cell-based; conditions: in Formulae 1-4
Protocol: as §1, §2, §3

`CCCCC(CC)CNC(=N)NC(=N)NCCCCCCNC(=N)NC(=N)NCC(CC)CCCC` (centres unmarked) [Alexidine, 1,1′-hexamethylenebis[5-(2-ethylhexyl)biguanide]] was tested, and the “antimicrobial activity to disinfect a contact lens” value [1] was “sufficient antimicrobial activity to disinfect a contact lens” and the “amount of Alexidine required to disinfect each of the solutions” value [2] was “approximately 1 ppm”.
